Measurements as given in patent US6916802B2, “Amino ceramide-like compounds and therapeutic methods of use” (Genzyme Corporation, priority 2002, dated 2005).

Key:
[1] = test system: GlcCer synthase of MDCK cell homogenates; assay: Inhibition of ceramide glucosyltransferase (GlcCer synthase) of MDCK cell homogenates; assay type: biochemical, canine
How it was run: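 MDCK cell sonicate (~0.2 mg protein) incubated with octanoyl sphingosine (85 μg, in dioleoylphosphatidylcholine/sulfatide liposomes) and UDP-[^3H]glucose in a thermostatted ultrasonic bath. Aromatic inhibitors were dried into the tube; aliphatic inhibitors were incorporated in the substrate liposomes.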

[2] = test system: GlcCer synthase of rabbit liver microsomes; assay: GlcCer synthase of rabbit liver microsomes; assay type: biochemical

Structure (SMILES): CCCCCCCCCCCCCCCC(=O)NC(CN1CCN(c2ccccc2)CC1)C(O)c1ccccc1 (mixture of isomers) [BML-112]
- activity against GlcCer synthase, in words [1]: little or no activity
- inhibitory activity against GlcCer synthase of rabbit liver microsomes [2]: no inhibitory activity
